Where a name gives a salt, the structure may show the parent alone.
Columns and labels:
Type in all cases: cell-based
PPARγ2 = PPARγ2 mRNA expression in L1 cells, Northern blotting; conditions: for PPARγ2 expression in L1 cells: 50 μM CoCl2 or 100 μM DFO during induction (FIG. 3C); for PPARγ2 expression in L1 cells with ectopic expression: retroviral infection, RNA on Day 2 after IDM stimulation (FIG. 7B)
Method: Total cellular RNA was isolated with Trizol reagent (Life Technologies). The following plasmids were used for cDNA template preparations by restriction digest: MSV-C/EBPβ and MSV-C/EBPδ (S. L. McKnight, Univ. Texas Southwestern Medical Center, Dallas, Tex.), pSVsport-PPARγ2 (B. M. Spiegelman), pBS-Stra13 (P. Chambon, INSERM, Strasbourg, France). Hybridization was carried out at 65° C. for 6 to 12 hr. The radioactive blot was visualized on Storm 860 PhosphoImager (Molecular Dynamics, Sunnyvale, Calif.).

[1] = test system: Mouse embryonic fibroblast (MEF) cells; experiment: Adipocyte differentiation of MEFs, Oil Red O staining; conditions: for adipogenesis of MEF cells: DM with 5 μM rosiglitazone, CoCl2 25 μM or DFO 25 μM, stained Day 6 (FIG. 1C); for adipocyte differentiation of control-treated MEF cells: control adenovirus, same conditions as cre-treated MEFs (FIG. 2); for adipocyte differentiation of HIF-1α deficient MEF cells: cre-treated MEFs, CoCl2 up to 50 μM, DFO up to 25 μM, entire course (FIG. 2)
Method: MEFs were induced to differentiate 2 days after confluence (day 0) with DM supplemented with 5 μM rosiglitazone (Alexander et al., 1998; Lehmann et al., 1995). The medium was replaced on Day 3 with DMEM plus 10% FBS, 1 μg/ml INS and 5 μM rosiglitazone, and was then changed every other day. To remove the HIF-1α gene, subconfluent culture of MEFs with HIF-1α alleles flanked by loxP sites were treated with adenovirus containing cre recombinase or control adenovirus at the multiplicity of infection (MOI) of 50 as previously described (Seagroves et al., 2001). The treated MEF cells were grown to confluence for 2 days before they were induced to differentiate as above.
(§1) To evaluate the effects of hypoxia on adipogenesis, cells were maintained at 20% O2 in standard incubator, 2% O2 in standard incubator or 0.01% O2 in an anaerobic chamber immediately following treatment with DM. Alternatively, CoCl2 or DFO was added to DM at indicated concentrations either during the initial stage of stimulation or for the entire course of differentiation.
(§2) For visualization of differentiated adipocytes, cells were washed with phosphate-buffered saline (PBS) and stained in 60% of the Oil Red O stock solution (0.5 g Oil Red O in 100 ml of isopropanol) for 30 min at 37° C. Cells were briefly washed in 60% isopropanol and then rinsed in distilled water for microscopic observation and photography.

3T3-L1 preadipocytes = experiment: Adipocyte differentiation of 3T3-L1 (L1) cells, Oil Red O staining; conditions: for differentiation of C/EBPβ-expressing L1 cells: agent present for first 2 days of adipogenic induction, 50 μM CoCl2 or 100 μM DFO (FIG. 4B); for differentiation and/or fat accumulation of C/EBPβ-expressing L1 cells: continuous presence (6 days), 50 μM CoCl2 or 100 μM DFO, 20% O2 (FIG. 4B); for differentiation of PPARγ2-expressing L1 cells: stimulated by rosiglitazone, 50 μM CoCl2 or 100 μM DFO for 6 days (FIG. 4C); for adipocyte differentiation of L1 cells on retroviral overexpression: retroviral infection, vs vector control pLXSN, stained Day 5 (FIG. 7A)
Method: Based on previously described procedure (Wu et al., 1996), L1 cells were maintained in GM for 2 days after confluence. The confluent cells were treated (day 0) with differentiation medium (DM) containing 10% FBS, 10 μg/ml INS, 1 μM DEX and 0.5 mM MIX in DMEM for 2 days. Cells were then maintained in DMEM containing 10% FBS and 1 μg/ml INS, and the medium was replaced every other day.
as §1, §2
Retroviruses were produced using the phoenix cell system (Baker et al., 1992; Pear et al., 1993). L1 cells at 30-50% confluence were retrovirally infected 2-3 times with 8 μg/ml Polybrene by centrifugation at 1800-2000 rpm for 1 hr, followed by overnight incubation at 32° C. For generation of stable C/EBPβ-expressing cells, L1 cells were infected with pBABEpuro or pBABEpuro-C/EBPβ (S. R. Farmer, Boston University, Boston, Mass.), followed by selection with 1 μg/ml of puromycin (Sigma). The stable cells were grown to confluence and induced to differentiate as described above. For transient infection with pBABEpuro, pBABEpuor-PPARγ2 (B. M. Spiegelman, Harvard University, Boston, Mass.), pLXSN/HA-DEC1, pLXSN-DEC1 and pLXSN-N1, L1 cells were spin-infected and induced to differentiate as described above.

PPARγ2 promoter = PPARγ2 promoter luciferase reporter assay in NIH-3T3 cells; conditions: for repression of PPARγ2 promoter activity by DEC1 fragments: 0.6-kb PPARγ2 promoter luciferase, co-transfected DEC1 fragments, 0.3 μg DNA each (FIG. 6A)
Method: The luciferase reporter construct pX2) under the control of the −603 to +62 PPARγ2 proximal promoter fragment (PPAR) or other deletional subclones was used as described (Tong et al., 2000). NIH-3T3 cells were transiently co-transfected with 0.3 μg each of pXP2 or PPAR and pcDNA3.1His construct expressing a DEC1 fragment using LipofectAmine Plus reagents (Life Technologies). Luciferase activities in cell lysates were measured in triplicates after 40-48 hr of incubation using Monolight 2010 Luminometer (Analytical Luminescence Laboratory, Ann Arbor, Mich.). The luciferase activity is expressed in relation to protein concentrations that vary little from well to well. Alternatively, a Renilla luciferase reporter was co-transfected as a control for transfection efficiency.

[2] = agent for first 2 days of induction with IDM, CoCl2 50 μM, DFO 100 μM, stained Day 6 (FIG. 1B)
[3] = agent in treatment media throughout the course of induction (6 days)

In the case of `CC(=O)N(O)CCCCCNC(=O)CCC(=O)N(O)CCCCCNC(=O)CCC(=O)N(O)CCCCCN` [DFO, deferoxamine mesylate], the “PPARγ2 expression in L1 cells” value (PPARγ2) is reported as “repressed”, the “adipogenesis of MEF cells” value [1] is reported as “suppresses adipogenesis” and the “adipocyte differentiation of control-treated MEF cells” value [1] is reported as “significantly represses differentiation”. For the same molecule, the “adipocyte differentiation of HIF-1α deficient MEF cells” value [1] was “continue to undergo significant adipocyte differentiation”, the L1 cell differentiation (3T3-L1 preadipocytes; [2]) was “sufficient to prevent L1 cell differentiation” and the L1 cell differentiation (3T3-L1 preadipocytes; [3]) was “Inhibition of L1 cell differentiation”. For the same molecule, the “differentiation of C/EBPβ-expressing L1 cells” value (3T3-L1 preadipocytes) was “still able to differentiate into fat-laden adipocytes”, the “differentiation and/or fat accumulation of C/EBPβ-expressing L1 cells” value (3T3-L1 preadipocytes) was “significantly reducing differentiation and/or fat accumulation” and the “differentiation of PPARγ2-expressing L1 cells” value (3T3-L1 preadipocytes) was “majority of the PPARγ2-expressing cells differentiate into adipocytes”.

`[Cl][Co][Cl]` [CoCl2, Cobalt Chloride] was tested, and the “PPARγ2 expression in L1 cells” value (PPARγ2) was “repressed”, the “adipogenesis of MEF cells” value [1] was “suppresses adipogenesis” and the “adipocyte differentiation of control-treated MEF cells” value [1] was “significantly represses differentiation”. The “adipocyte differentiation of HIF-1α deficient MEF cells” value [1] was “continue to undergo significant adipocyte differentiation”, the L1 cell differentiation (3T3-L1 preadipocytes; [2]) was “sufficient to prevent L1 cell differentiation” and the L1 cell differentiation (3T3-L1 preadipocytes; [3]) was “Inhibition of L1 cell differentiation”. The “differentiation of C/EBPβ-expressing L1 cells” value (3T3-L1 preadipocytes) was “still able to differentiate into fat-laden adipocytes”, the “differentiation and/or fat accumulation of C/EBPβ-expressing L1 cells” value (3T3-L1 preadipocytes) was “significantly reducing differentiation and/or fat accumulation” and the “differentiation of PPARγ2-expressing L1 cells” value (3T3-L1 preadipocytes) was “majority of the PPARγ2-expressing cells differentiate into adipocytes”.

For `CN(CCOc1ccc(CC2SC(=O)NC2=O)cc1)c1ccccn1` (centres unmarked) [rosiglitazone], the “MEF cells that differentiate into adipocytes” value ([1]; IDM supplemented with 5 μM rosiglitazone) was 15-20%.

“HA-DEC1: HA-tagged full-length DEC1 expressed from pLXSN/HA-DEC1” was tested, and the “PPARγ2 expression in L1 cells with ectopic expression” value (PPARγ2) was “repressed” and the “adipocyte differentiation of L1 cells on retroviral overexpression” value (“adipocyte differentiation of L1 cells” below) (3T3-L1 preadipocytes) was “nearly complete inhibition of adipocyte differentiation”.

In the case of “DEC1: full-length DEC1 bHLH transcription repressor, expressed from pcDNA3.1-DEC1 or pLXSN-DEC1”, the “repression of PPARγ2 promoter activity” value (PPARγ2 promoter; 0.6-kb PPARγ2 promoter (−603 to +62) luciferase, compared to the vector control, co-transfection (FIG. 6A)) is reported as 70%, the “repression of FLΔBrS promoter (BrS deleted)” value (PPARγ2 promoter; 0.6-kb promoter with BsrGI-StuI fragment deleted (FIG. 6B)) is reported as “no longer repressed” and the “PPARγ2 expression in L1 cells with ectopic expression” value (PPARγ2) is reported as “repressed”. For the same molecule, the “adipocyte differentiation of L1 cells” value (3T3-L1 preadipocytes) was “nearly complete inhibition of adipocyte differentiation”.

B1: C1: C-terminal DEC1 fragment aa121-412 (protein, UniProt O14503 121-412, looked up, fragment)
chain: LQSGLQAGELSGRNVETGQEMFCSGFQTCAREVLQYLAKHENTRDLKSSQLVTHLHRVVSELLQGGTSRKPSDPAPKVMDFKEKPSSPAKGSEGPGKNCVPVIQRTFAHSSGEQSGSDTDTDSGYGGESEKGDLRSEQPCFKSDHGRRFTMGERIGAIKQESEEPPTKKNRMQLSDDEGHFTSSDLISSPFLGPHPHQPPFCLPFYLIPPSATAYLPMLEKCWYPTSVPVLYPGLNASAAALSSFMNPDKISAPLLMPQRLPSPLPAHPSVDSSVLLQALKPIPPLNLETKD
In the case of B1, the “repression of PPARγ2 promoter activity by DEC1 fragments” value (PPARγ2 promoter) is reported as “do not inhibit PPARγ2 promoter activity”.

B2: C2: C-terminal DEC1 fragment aa201-412 (protein, UniProt O14503 201-412, looked up, fragment)
chain: FKEKPSSPAKGSEGPGKNCVPVIQRTFAHSSGEQSGSDTDTDSGYGGESEKGDLRSEQPCFKSDHGRRFTMGERIGAIKQESEEPPTKKNRMQLSDDEGHFTSSDLISSPFLGPHPHQPPFCLPFYLIPPSATAYLPMLEKCWYPTSVPVLYPGLNASAAALSSFMNPDKISAPLLMPQRLPSPLPAHPSVDSSVLLQALKPIPPLNLETKD
For B2, the “repression of PPARγ2 promoter activity by DEC1 fragments” value (PPARγ2 promoter) was “do not inhibit PPARγ2 promoter activity”.

B3: N1: N-terminal DEC1 fragment aa1-141 containing the bHLH domain (protein, UniProt O14503 1-141, looked up, fragment)
chain: MERIPSAQPPPACLPKAPGLEHGDLPGMYPAHMYQVYKSRRGIKRSEDSKETYKLPHRLIEKKRRDRINECIAQLKDLLPEHLKLTTLGHLEKAVVLELTLKHVKALTNLIDQQQQKIIALQSGLQAGELSGRNVETGQEM
For B3, the “PPARγ2 expression in L1 cells with ectopic expression” value (PPARγ2) was “repressed” and the “adipocyte differentiation of L1 cells” value (3T3-L1 preadipocytes) was “Significant inhibition”.

— patent publication US7378246B2, “Methods and compositions for regulating adipogenesis” (The Board of Trustees of the Leland Stanford Junior …, priority 2002, dated 2008)
